From ChEMBL document CHEMBL1201862, “PubChem BioAssay data set” (2004)
Counter-ions that a name gives are not always drawn. Activity calls are given as the source filed them.

How the values were obtained:
[1] = HPDE-C7 pancreatic duct cell viability loss – fluorescence, HTS (AID 430); assay type: functional, cell-based; settings: Homo sapiens
[2] = molecular target: T1, Heat shock factor protein 1 (Mus musculus, UniProt P38532); assay: decrease of HSF1-responsive luciferase luminescence – cell-based, NIH3T3, dose retest, confirmation (AID 2382); assay type: functional;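 note: NIH3T3 fibroblasts with HSF1-driven luciferase reporter stressed by proteasome inhibitor MG132; luminescence from HSF1-driven luciferase expression after 8 hours of MG132 stress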
T1 sequence (P38532 whole entry): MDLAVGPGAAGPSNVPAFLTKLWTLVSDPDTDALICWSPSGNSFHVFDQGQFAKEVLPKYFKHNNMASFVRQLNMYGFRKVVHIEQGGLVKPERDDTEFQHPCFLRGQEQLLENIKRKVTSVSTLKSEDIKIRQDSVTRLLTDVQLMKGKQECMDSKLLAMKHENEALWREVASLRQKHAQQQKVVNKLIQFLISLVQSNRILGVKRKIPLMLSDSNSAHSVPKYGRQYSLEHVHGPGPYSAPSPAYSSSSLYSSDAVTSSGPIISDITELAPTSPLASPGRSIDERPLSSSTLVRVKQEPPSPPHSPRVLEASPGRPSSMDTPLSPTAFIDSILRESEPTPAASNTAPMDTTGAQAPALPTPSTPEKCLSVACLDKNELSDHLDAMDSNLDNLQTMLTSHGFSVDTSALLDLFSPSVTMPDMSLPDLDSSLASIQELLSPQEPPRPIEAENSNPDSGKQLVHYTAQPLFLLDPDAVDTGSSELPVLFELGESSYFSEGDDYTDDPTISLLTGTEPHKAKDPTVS

[3] = viability loss of HPDE-C7K cells – cell-based, fluorescence, HTS, primary screen (AID 431); assay type: functional; settings: Homo sapiens
[4] = molecular target: T2, Tyrosine-protein phosphatase non-receptor type 22 (Homo sapiens, UniProt Q9Y2R2); assay: SAR LYP1 Fluorescent Assay using OMFP substrate for In Vitro dose response studies - Set 3. [Related pubchem assays (depositor defined):AID1779, AID1784, AID2140, AID2686]; assay type: functional
T2 sequence (Q9Y2R2 whole entry): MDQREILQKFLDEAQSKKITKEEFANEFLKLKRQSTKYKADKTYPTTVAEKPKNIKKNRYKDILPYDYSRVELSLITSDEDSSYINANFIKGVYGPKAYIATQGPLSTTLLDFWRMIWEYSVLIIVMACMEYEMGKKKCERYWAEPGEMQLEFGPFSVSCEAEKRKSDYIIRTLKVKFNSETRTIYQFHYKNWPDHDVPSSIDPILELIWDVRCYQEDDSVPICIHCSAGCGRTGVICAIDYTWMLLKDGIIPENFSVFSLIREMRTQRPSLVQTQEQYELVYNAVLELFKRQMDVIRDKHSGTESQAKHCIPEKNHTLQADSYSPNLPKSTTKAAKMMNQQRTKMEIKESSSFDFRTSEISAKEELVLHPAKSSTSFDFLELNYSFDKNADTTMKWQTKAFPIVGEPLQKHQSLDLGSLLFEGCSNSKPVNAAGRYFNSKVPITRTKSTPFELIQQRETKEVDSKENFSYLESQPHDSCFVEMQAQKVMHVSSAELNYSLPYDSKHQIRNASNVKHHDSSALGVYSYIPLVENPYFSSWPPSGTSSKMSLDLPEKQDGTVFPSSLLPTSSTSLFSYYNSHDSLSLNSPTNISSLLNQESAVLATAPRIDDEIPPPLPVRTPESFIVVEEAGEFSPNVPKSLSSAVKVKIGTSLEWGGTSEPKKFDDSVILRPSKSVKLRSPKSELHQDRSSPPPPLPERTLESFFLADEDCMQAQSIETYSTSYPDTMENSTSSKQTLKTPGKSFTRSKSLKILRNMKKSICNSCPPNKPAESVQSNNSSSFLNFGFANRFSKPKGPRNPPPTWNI

[5] = molecular target: T2, Tyrosine-protein phosphatase non-receptor type 22; assay: inhibition of lymphoid tyrosine phosphatase LYP – biochemical, pCAP fluorogenic substrate, fluorescence, set 3, SAR follow-up (AID 449727); assay type: functional
[6] = molecular target: T3, Tyrosine-protein phosphatase non-receptor type 12 (Homo sapiens, UniProt Q05209); assay: SAR Selectivity Analysis of small molecule inhibitors of PEST using pCAP in a fluorescence assay. [Related pubchem assays (depositor defined):AID1779, AID1784, AID2135]; assay type: functional
T3 sequence (Q05209 whole entry): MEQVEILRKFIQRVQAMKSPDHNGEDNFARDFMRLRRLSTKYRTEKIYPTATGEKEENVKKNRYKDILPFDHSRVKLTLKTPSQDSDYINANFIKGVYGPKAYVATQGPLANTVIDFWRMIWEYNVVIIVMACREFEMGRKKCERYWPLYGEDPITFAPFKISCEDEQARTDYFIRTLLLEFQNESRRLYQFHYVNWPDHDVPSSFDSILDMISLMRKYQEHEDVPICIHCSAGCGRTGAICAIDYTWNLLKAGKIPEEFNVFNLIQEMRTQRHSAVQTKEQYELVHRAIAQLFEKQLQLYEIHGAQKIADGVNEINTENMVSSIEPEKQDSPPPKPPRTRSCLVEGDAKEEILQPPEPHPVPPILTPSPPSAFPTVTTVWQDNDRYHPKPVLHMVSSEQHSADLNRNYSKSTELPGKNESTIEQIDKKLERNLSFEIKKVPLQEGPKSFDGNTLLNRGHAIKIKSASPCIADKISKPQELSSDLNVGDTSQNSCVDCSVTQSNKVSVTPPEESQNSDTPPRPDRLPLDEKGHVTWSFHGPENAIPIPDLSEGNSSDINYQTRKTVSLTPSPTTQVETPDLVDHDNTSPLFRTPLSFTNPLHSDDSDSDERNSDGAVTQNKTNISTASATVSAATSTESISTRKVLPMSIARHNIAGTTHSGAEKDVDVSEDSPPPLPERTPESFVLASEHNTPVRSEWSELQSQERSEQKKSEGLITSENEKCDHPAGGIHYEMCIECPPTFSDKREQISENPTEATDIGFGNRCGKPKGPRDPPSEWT

[7] = molecular target: Glyceraldehyde-3-phosphate dehydrogenase (Homo sapiens, UniProt P04406)
[8] = Luminescence Cell-Based Dose Response HTS to Identify Activators of Luciferase Translation or Activity in H4 […] Cells. [Related pubchem assays: 1829 (Project Summary), 1814 (Primary HTS)]; assay type: functional
H4 = assay: Luminescence Cell-Based Dose Response HTS to Identify Activators of 5'UTR Stem-Loop Driven Prion Protein mRNA Translation in H4 Neuroglioblastoma Cells. [Related pubchem assays: 1829 (Project Summary), 1814 (Primary HTS)]; assay type: functional; settings: Homo sapiens
[9] = Luminescence Cell-Based Dose Response to Identify Activators of 5'UTR Stem-Loop Driven Prion Protein mRNA Translation in H4-C Neuroglioblastoma Cells. [Related pubchem assays: 1829 (Project Summary), 1814 (Primary HTS)]; assay type: functional
[10] = Luminescence Cell-Based Dose Response to Identify Activators of Luciferase Translation or Activity in H4-C Neuroglioblastoma Cells. [Related pubchem assays: 1829 (Project Summary), 1814 (Primary HTS)]; assay type: functional
[11] = Luminescence Cell-Based Dose Confirmation to Identify Activators of 5'UTR Stem-Loop Driven Alpha-Synuclein mRNA Translation in H4 Neuroglioblastoma Cells. [Related pubchem assays: 1829 (Project Summary), 1814 (Primary HTS)]; assay type: functional
[12] = Luminescence Cell-Based Dose Confirmation HTS to Identify Activators of 5'UTR Stem-Loop Driven Alpha-Synuclein mRNA Translation in H4 Neuroglioblastoma Cells. [Related pubchem assays: 1829 (Project Summary), 1814 (Primary HTS)]; assay type: functional
[13] = IC50 of insulin release inhibition, rat insulinoma INS-1E line, 5 mM glucose, cell-based (AID 1117331); assay type: functional
[14] = molecular target: T4, DNA repair protein RAD52 homolog (Homo sapiens, UniProt P43351); assay type: functional, biochemical
T4 sequence (P43351 whole entry): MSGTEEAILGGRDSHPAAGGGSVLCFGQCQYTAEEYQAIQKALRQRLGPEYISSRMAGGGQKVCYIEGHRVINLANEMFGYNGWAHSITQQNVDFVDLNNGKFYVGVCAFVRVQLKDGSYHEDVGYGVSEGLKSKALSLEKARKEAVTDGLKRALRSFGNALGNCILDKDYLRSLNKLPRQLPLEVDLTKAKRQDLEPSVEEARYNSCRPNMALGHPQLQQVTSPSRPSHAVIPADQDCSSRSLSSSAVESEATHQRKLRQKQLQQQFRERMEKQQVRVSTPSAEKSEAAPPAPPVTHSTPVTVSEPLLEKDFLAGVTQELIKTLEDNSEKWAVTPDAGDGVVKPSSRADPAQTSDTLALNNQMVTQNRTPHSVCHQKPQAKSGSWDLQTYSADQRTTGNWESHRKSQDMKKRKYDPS

[15] = molecular target: Heat shock protein HSP 90-alpha (Homo sapiens, UniProt P07900); assay: Luminescence-based dose response biochemical high throughput screening assay for inhibitors of the Heat Shock Protein 90 (HSP90). [Related pubchem assays: 1831 (Summary AID.), 1846 (Confirmation screen.), 1789 (Primary screen.)]
[16] = molecular target: Peroxisome proliferator-activated receptor gamma/Nuclear receptor coactivator 1 (Homo sapiens, UniProt P37231); assay type: functional;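 note: agonist potency as compounds enhance coactivator SRC-1 recruitment to PPARgamma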
[17] = molecular target: Peroxisome proliferator-activated receptor gamma/Nuclear receptor coactivator 3 (Homo sapiens, UniProt P37231); assay type: functional;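 note: agonist potency for raising coactivator recruitment to the receptor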
[18] = molecular target: Peroxisome proliferator-activated receptor gamma/Nuclear receptor coactivator 2 (Homo sapiens, UniProt P37231); assay type: functional;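 note: agonist potency for raising coactivator recruitment to the receptor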
[19] = Dd2 malaria parasite growth inhibition potency – SYBR Green, dry powder samples, dose response (AID 1159566); assay type: functional, cell-based;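 note: potency for growth inhibition with lower SYBR green DNA signal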
[20] = growth inhibition of PfATP4-mutant resistant parasites – NITD609-resistant line, SYBR Green, dry powder, dose response (AID 1159571); assay type: functional, cell-based;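 note: parasites synchronized at ring stage by sorbitol before testing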
[21] = growth inhibition of yeast DHODH-expressing 3D7 parasites – SYBR Green, dry powder samples, dose response (AID 1159570); assay type: functional, cell-based;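 note: parasite growth measured after 72 hours of compound exposure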
[22] = P. falciparum Dd2 growth inhibitors, dose response, SYBR Green, cherry-picked samples (AID 1159567); assay type: functional, cell-based
[23] = Dd2 parasite growth inhibition in erythrocytes – SYBR Green, dry powder samples, set 9, dose response (AID 1159568); assay type: functional, cell-based

Peroxisome proliferator-activated receptor gamma/Nuclear receptor coactivator 2, sequence (P37231 whole entry): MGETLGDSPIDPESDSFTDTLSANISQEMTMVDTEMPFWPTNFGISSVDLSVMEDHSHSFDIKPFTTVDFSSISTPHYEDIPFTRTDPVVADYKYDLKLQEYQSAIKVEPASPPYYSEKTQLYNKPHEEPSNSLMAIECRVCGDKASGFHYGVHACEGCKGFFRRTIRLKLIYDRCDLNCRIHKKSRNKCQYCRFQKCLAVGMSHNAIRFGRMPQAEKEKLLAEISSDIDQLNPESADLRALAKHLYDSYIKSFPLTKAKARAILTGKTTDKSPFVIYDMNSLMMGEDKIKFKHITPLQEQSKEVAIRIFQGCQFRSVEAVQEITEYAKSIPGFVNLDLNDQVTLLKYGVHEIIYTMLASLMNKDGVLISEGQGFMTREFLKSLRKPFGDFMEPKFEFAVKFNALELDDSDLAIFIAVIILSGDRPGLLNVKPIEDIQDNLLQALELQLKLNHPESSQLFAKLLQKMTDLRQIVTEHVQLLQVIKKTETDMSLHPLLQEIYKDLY
Peroxisome proliferator-activated receptor gamma/Nuclear receptor coactivator 2, sequence (Q15596 whole entry, further chain): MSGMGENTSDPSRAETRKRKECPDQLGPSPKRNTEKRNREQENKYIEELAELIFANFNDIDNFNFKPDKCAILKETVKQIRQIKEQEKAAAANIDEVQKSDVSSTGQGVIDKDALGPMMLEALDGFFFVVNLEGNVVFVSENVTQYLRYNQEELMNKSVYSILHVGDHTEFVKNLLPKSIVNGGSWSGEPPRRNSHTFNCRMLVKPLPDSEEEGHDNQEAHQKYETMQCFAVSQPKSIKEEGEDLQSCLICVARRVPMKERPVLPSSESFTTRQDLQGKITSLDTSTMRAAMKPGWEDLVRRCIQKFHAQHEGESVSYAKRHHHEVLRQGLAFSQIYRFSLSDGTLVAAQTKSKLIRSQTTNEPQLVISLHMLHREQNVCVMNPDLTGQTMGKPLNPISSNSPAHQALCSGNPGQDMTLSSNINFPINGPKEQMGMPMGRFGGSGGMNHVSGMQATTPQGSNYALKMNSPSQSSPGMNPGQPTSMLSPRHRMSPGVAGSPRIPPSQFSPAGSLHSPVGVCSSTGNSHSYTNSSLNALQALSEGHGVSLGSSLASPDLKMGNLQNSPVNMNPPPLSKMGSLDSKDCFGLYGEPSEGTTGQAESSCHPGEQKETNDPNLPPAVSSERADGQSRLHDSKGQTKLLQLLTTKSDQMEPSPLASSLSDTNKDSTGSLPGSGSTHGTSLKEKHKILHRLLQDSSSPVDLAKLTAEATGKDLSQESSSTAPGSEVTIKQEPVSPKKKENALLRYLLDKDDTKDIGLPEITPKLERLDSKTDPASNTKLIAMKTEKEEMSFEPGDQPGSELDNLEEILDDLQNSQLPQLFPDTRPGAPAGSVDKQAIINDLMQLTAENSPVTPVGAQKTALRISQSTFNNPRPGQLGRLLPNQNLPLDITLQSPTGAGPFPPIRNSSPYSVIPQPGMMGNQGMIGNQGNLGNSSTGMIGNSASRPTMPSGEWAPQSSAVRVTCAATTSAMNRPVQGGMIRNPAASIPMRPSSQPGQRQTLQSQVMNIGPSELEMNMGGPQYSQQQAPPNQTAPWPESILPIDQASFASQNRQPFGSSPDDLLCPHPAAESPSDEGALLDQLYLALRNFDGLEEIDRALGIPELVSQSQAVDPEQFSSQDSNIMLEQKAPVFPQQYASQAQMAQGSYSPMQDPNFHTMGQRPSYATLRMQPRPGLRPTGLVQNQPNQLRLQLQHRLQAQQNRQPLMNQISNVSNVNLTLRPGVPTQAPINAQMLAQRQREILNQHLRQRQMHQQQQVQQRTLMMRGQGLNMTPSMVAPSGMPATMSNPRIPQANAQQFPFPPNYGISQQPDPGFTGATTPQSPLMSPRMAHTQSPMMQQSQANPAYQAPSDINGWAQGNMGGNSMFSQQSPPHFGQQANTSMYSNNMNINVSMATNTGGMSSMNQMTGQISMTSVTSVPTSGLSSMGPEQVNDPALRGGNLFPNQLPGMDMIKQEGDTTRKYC
Peroxisome proliferator-activated receptor gamma/Nuclear receptor coactivator 1, sequence (P37231 whole entry): as the sequence (P37231 whole entry) above
Peroxisome proliferator-activated receptor gamma/Nuclear receptor coactivator 1, sequence (Q15788 whole entry, further chain): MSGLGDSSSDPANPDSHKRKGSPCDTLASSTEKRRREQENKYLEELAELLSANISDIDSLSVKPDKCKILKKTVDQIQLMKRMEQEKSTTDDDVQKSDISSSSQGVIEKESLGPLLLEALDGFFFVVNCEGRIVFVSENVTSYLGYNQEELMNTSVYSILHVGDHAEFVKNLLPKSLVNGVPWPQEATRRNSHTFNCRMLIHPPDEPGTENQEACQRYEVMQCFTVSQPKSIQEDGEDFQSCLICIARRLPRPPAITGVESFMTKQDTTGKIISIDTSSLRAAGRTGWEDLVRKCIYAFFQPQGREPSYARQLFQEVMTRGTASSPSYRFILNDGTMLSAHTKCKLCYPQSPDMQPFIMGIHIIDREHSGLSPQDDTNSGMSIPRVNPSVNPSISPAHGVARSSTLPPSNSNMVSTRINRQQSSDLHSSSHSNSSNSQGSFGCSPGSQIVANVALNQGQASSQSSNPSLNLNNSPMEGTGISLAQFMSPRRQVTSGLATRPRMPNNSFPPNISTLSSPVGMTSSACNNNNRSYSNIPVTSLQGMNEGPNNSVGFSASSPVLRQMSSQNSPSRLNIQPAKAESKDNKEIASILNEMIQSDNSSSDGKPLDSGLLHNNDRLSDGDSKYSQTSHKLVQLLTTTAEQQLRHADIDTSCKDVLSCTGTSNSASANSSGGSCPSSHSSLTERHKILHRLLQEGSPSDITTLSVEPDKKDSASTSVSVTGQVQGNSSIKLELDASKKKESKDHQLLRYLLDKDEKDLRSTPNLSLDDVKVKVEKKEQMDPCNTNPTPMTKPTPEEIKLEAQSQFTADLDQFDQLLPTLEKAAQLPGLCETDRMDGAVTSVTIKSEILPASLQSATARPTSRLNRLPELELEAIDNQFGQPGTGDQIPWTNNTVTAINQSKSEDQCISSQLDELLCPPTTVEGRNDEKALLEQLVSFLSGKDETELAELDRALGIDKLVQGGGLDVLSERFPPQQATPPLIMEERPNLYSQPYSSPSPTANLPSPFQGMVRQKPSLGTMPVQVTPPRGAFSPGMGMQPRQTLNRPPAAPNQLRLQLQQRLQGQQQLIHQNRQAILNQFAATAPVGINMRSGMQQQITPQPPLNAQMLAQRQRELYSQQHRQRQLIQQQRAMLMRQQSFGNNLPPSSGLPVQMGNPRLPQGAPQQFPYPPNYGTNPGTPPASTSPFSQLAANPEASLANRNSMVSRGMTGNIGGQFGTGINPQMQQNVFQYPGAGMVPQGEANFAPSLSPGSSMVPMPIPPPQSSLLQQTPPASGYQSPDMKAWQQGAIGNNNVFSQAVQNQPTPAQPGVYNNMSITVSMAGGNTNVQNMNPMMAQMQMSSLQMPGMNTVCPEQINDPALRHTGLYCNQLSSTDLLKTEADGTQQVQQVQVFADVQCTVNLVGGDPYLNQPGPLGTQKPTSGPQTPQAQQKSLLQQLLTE
Glyceraldehyde-3-phosphate dehydrogenase, sequence (P04406 whole entry): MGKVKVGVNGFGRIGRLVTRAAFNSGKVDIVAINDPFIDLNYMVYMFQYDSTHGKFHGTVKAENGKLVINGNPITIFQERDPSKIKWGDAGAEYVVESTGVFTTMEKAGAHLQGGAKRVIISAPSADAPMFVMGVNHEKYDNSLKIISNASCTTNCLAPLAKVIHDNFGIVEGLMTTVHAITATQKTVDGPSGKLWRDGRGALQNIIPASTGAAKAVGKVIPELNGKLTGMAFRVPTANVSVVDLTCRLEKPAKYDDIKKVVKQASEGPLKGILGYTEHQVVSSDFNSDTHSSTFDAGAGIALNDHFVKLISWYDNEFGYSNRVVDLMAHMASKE

For `Cc1ccc(-n2ncc3c(NCc4ccc5c(c4)OCO5)ncnc32)c(C)c1`, the EC50 [1] was > 20 µM (not active), the EC50 [2] was > 195 µM (not active) and the EC50 [3] was > 20 µM (not active).

With `CCOC(=O)N1CCN(S(=O)(=O)c2cc(Br)cc3c2N(C(C)=O)C(C)C3)CC1` (stereo not given) the EC50 [1] was > 20 µM (not active) and the EC50 [3] was > 20 µM (not active).

With `O=C(O)CN1C(=O)/C(=C\c2ccc(C(=O)O)cc2)SC1=S` the IC50 [4] was > 100 µM (inactive), the IC50 [5] was 88.9 µM (active) and the IC50 [6] was 24.5 µM (active). For the same compound, the IC50 [7] was > 100 µM (not active).

With `O=C(O)CN1C(=O)/C(=C\c2cccc([N+](=O)[O-])c2)SC1=S` the IC50 [4] was > 100 µM (inactive), the IC50 [5] was > 100 µM (inactive) and the IC50 [6] was > 100 µM (inactive). The IC50 [7] was > 100 µM (not active).

For `COc1ccc(/N=C/c2sc(O)c3ccccc23)cc1`, the EC50 [8] was < 0.1 µM (active), the EC50 (H4) was < 0.1 µM (active) and the EC50 [9] was 0.315 µM (active). The EC50 [10] was 0.433 µM (active), the EC50 [11] was 0.228 µM (active) and the EC50 [12] was < 0.1 µM (active).

In the case of `CCCCOc1cc(C(=O)OCCN(CC)CC)ccc1N` [BENOXINATE HYDROCHLORIDE], the IC50 [13] is reported as 15.5 µM (inactive) and the AC50 [14] is reported as 33.9 µM (active).

With `CC(=O)Oc1ccccc1/C=C/c1nc2ccccc2c(=O)o1` the IC50 [15] was 5.31 µM (active).

For `CCOC(=O)c1c(NC(=O)Cc2cccs2)sc(C(=O)NC2CCCC2)c1C`, the EC50 [16] was > 79.4 µM (not active), the EC50 [17] was > 79.4 µM (not active) and the EC50 [18] was > 79.4 µM (not active).

For `C[C@@H]1CN([C@@H](C)CO)C(=O)c2cccc(NC(=O)c3cnccn3)c2O[C@@H]1CN(C)Cc1ccc(-c2ccccc2)cc1`, the AC50 [19] was 0.381 µM (active), the AC50 [20] was 0.357 µM (active) and the AC50 [21] was 0.0947 µM (active). For the same compound, the AC50 [22] was 1.14 µM (active) and the AC50 [23] was 0.378 µM (active).

In the case of `COc1ccc(C(=O)CSc2nnc(-c3ccc(S(=O)(=O)N4CCOCC4)cc3)o2)cc1`, the EC50 [16] is reported as 40.5 µM (not active), the EC50 [17] is reported as 53.5 µM (not active) and the EC50 [18] is reported as 26.1 µM (not active).

With `COc1ccc(/C=N/Nc2nnc(-c3ncc[nH]3)c3ccccc23)cc1` the EC50 [8] was 1.93 µM (active), the EC50 (H4) was 65.2 µM (active) and the EC50 [9] was > 12 µM (not active). For the same compound, the EC50 [10] was 1.34 µM (active), the EC50 [11] was 0.962 µM (active) and the EC50 [12] was < 0.1 µM (active).

For `COc1ccccc1N(CC(=O)NCC1CCCO1)C(=O)CCC(=O)Nc1nccs1` (stereo not given), the EC50 [16] was > 79.4 µM (not active), the EC50 [17] was > 79.4 µM (not active) and the EC50 [18] was > 79.4 µM (not active).

In the case of `C[C@H]1CN([C@@H](C)CO)C(=O)c2cccc(NC(=O)NC3CCCCC3)c2O[C@H]1CN(C)Cc1ccc(C(F)(F)F)cc1`, the AC50 [23] is reported as 31.7 µM (active).

In the case of `Cc1cc(C)c2c(n1)nn1c(N3CCN(c4ccccc4)CC3)cc(C)nc21`, the EC50 [1] is reported as > 20 µM (not active) and the EC50 [3] is reported as > 20 µM (not active).
